Laboratory results published in ChEMBL document CHEMBL3886628, “Substituted 3-(biphenyl-3-yl)-4-hydroxy-8-methoxy-1-azaspiro[4.5]dec-3-en-2-one” (2016).
Where “and” joins values, the source holds several entries; their conditions need not be identical. Identical values can stand only once.

Assays:
Acetyl-CoA carboxylase 1 = Acetyl-CoA carboxylase 1 (Homo sapiens, UniProt Q13085); experiment: Typical concentrations were in the range of 1.75 μl.
Acetyl-CoA carboxylase 2 = Acetyl-CoA carboxylase 2 (Homo sapiens, UniProt O00763)
Chain of Acetyl-CoA carboxylase 2 (O00763 whole entry): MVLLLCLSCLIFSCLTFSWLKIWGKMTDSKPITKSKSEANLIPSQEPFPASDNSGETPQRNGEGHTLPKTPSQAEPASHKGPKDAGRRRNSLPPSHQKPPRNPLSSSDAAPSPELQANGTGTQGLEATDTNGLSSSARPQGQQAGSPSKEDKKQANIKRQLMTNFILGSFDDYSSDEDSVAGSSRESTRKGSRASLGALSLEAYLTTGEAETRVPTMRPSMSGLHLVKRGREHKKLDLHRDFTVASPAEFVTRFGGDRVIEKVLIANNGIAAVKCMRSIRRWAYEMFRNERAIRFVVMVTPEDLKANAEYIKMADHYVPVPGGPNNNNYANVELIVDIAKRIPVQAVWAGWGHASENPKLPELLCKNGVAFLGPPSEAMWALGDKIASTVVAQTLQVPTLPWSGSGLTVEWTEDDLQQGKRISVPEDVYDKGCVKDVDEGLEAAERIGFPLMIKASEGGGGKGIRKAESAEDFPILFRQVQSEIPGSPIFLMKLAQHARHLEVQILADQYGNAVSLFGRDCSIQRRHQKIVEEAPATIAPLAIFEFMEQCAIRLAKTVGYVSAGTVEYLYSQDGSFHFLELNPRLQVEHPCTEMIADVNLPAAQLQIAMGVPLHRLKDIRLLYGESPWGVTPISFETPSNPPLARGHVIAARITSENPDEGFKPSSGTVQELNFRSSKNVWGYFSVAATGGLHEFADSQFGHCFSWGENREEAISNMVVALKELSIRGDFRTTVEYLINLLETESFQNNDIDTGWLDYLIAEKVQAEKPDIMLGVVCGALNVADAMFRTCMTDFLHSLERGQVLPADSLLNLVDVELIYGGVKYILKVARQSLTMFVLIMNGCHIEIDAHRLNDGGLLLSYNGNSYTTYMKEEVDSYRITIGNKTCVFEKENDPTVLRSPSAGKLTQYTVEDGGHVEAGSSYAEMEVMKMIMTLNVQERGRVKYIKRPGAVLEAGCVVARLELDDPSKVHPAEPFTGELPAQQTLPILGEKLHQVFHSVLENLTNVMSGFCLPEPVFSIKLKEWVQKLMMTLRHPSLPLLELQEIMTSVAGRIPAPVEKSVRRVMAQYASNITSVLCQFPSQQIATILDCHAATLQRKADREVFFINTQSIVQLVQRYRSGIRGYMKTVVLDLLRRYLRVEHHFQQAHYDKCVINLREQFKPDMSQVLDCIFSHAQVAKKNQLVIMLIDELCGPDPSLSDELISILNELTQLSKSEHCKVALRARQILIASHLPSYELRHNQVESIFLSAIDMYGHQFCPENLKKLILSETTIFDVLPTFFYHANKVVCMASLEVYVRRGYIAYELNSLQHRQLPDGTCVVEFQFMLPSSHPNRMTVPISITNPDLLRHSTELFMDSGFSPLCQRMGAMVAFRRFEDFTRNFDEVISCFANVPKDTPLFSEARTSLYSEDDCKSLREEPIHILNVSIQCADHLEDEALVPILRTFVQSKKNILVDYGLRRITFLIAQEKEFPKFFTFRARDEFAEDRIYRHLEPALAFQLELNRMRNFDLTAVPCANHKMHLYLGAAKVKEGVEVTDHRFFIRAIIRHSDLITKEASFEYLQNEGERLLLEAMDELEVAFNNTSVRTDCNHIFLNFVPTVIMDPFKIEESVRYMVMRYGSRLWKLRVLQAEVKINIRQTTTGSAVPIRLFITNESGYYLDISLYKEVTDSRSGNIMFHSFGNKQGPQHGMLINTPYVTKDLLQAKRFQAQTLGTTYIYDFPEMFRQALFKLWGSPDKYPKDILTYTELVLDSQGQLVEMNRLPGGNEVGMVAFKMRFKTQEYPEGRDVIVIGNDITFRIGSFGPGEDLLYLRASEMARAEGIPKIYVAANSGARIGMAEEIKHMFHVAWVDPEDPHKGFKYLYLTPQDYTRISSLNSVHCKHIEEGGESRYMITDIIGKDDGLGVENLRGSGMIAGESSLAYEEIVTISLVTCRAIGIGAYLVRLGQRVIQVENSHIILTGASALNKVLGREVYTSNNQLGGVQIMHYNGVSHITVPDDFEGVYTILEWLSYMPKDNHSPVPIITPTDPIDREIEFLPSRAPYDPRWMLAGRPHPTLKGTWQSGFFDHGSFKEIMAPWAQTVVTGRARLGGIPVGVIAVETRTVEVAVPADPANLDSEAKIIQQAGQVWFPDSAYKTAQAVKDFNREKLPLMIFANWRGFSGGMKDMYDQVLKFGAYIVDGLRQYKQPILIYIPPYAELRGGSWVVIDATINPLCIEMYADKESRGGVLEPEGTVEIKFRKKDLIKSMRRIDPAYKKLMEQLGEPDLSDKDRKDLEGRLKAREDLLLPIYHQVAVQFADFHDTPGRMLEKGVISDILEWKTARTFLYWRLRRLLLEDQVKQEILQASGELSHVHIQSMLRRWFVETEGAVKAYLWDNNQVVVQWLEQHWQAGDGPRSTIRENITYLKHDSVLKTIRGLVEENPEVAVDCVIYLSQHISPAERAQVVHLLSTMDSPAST

CO[C@]1(C(F)(F)F)CC[C@]2(CC1)NC(=O)C(c1cc(-c3ccc(Cl)c(F)c3)ccc1C)=C2O
IC50 (Acetyl-CoA carboxylase 1): 92 nM and 119 nM | IC50 (Acetyl-CoA carboxylase 2): 2760 nM and 1690 nM and 2010 nM

CO[C@]1(C(F)(F)F)CC[C@]2(CC1)NC(=O)C(c1cc(-c3ccc(Cl)cc3)ccc1C)=C2O
IC50 (Acetyl-CoA carboxylase 1): 231 nM and 244 nM and 44 nM and 67 nM and 78 nM and 162 nM and 186 nM and 99 nM

COC[C@]1(OC)CC[C@@]2(CC1)NC(=O)C(c1cc(-c3ccc(Cl)c(F)c3)ccc1C)=C2O
IC50 (Acetyl-CoA carboxylase 1): 104 nM and 133 nM and 84 nM
